The results in this text go back to patent US20240076287A1, “SOLID FORMS OF A CDK2 INHIBITOR” (PFIZER INC., priority 2020, published 2024).

Data set [1] is described as follows: slurry stability experiments (solid form by PXRD). The format is physicochemical. The settings on record: for Final Form: slurry in 2-propanol/water, Aw 0.9. As to the method:
Slurry experiments were conducted as follows. The indicated starting form of PF-07104091 was transferred to a 2 mL vial. The indicated solvent or solvent mixture was added to obtain a slurry at the specified temperature (Table 14). Additional solids were added as necessary to ensure a sufficiently thick slurry. A magnetic stir bar was added and the vial was tightly capped to prevent solvent loss. The resulting slurry was left to stir at the specified temperature. Aliquots were pulled from the slurry periodically or after a certain duration. Solids were separated from the liquid by centrifuge filtration and the solids were characterized by powder x-ray diffraction. […] (ambient), and 40° C.

The nature of data set [2]: moisture sorption (DVS) study. The format is physicochemical.

Consider `COCc1cc(C(=O)Nc2cc([C@H]3CC[C@@H](OC(=O)NC(C)C)C3)[nH]n2)n(C)n1` [Form 1, (1R,3S)-3-[3-({[3-(methoxymethyl)-1-methyl-1H-pyrazol-5-yl]carbonyl}amino)-1H-pyrazol-5-yl]cyclopentyl propan-2-ylcarbamate], for which the “Final Form” value in data set [1] (4 °C) and in data set [1] (ambient) was “Form 3” in each case.

For the molecule `COCc1cc(C(=O)Nc2cc([C@H]3CC[C@@H](OC(=O)NC(C)C)C3)[nH]n2)n(C)n1` [PF-07104091 (Form 2), (1R,3S)-3-[3-({[3-(methoxymethyl)-1-methyl-1H-pyrazol-5-yl]carbonyl}amino)-1H-pyrazol-5-yl]cyclopentyl propan-2-ylcarbamate], the “solid form of the post moisture sorption material” value in data set [2] (PXRD after DVS) is recorded as “no change in solid form”. The figures for the mass gain in data set [2] (at 60% RH), in data set [2] (at 75% RH) and in data set [2] (at 90% RH) were approximately 0.7%, approximately 1% and approximately 1.6%, respectively. In addition, in data set [2] (moisture sorption (DVS)), the hygroscopicity entry is listed as “slightly hygroscopic”.

Turning to `COCc1cc(C(=O)Nc2cc([C@H]3CC[C@@H](OC(=O)NC(C)C)C3)[nH]n2)n(C)n1` [PF-07104091 monohydrate (Form 3), (1R,3S)-3-[3-({[3-(methoxymethyl)-1-methyl-1H-pyrazol-5-yl]carbonyl}amino)-1H-pyrazol-5-yl]cyclopentyl propan-2-ylcarbamate], the “thermodynamic stability of the solid form” value in data set [1] (at 4° C., ˜25° C. (ambient), and 40° C.) was “thermodynamically most stable form”.
